From PubChem BioAssay (NCI)
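1) Cells in 96-well plates. 2) Compound, 48 h, 5 concentrations. 3) Linear interpolation between surrounding doses. 4) Unreached endpoint = highest concentration. Definition used: TGI = concentration required for complete inhibition of growth.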

Columns and labels:
Assay in all cases: NCI anticancer screen, dose series, 48 h
DMS 114 small cell lung = tested on: DMS 114 small cell lung
SW-620 colon = tested on: SW-620 colon
DMS 273 small cell lung = tested on: DMS 273 small cell lung
SK-OV-3 ovarian = tested on: SK-OV-3 ovarian
HCT-15 colon = tested on: HCT-15 colon
OVCAR-3 ovarian = tested on: OVCAR-3 ovarian
CCRF-CEM leukemia = tested on: CCRF-CEM leukemia
SN12C renal = tested on: SN12C renal
EKVX NSCLC = tested on: EKVX NSCLC
CAKI-1 renal = tested on: CAKI-1 renal

Measured: TGI

CC(C)=CC(=O)N1CCN(C(=O)C=C(C)C)CC1
> 100 µM: DMS 114 small cell lung | SW-620 colon | DMS 273 small cell lung | SK-OV-3 ovarian | HCT-15 colon | OVCAR-3 ovarian | CCRF-CEM leukemia | SN12C renal | EKVX NSCLC | CAKI-1 renal

CC(=O)SCCC1c2[nH]c3ccccc3c2CCN1O (stereo not given)
> 100 µM: DMS 114 small cell lung | SW-620 colon | DMS 273 small cell lung | SK-OV-3 ovarian | HCT-15 colon | OVCAR-3 ovarian | CCRF-CEM leukemia | SN12C renal | EKVX NSCLC | CAKI-1 renal

COC(=O)C1=C(c2ccc3c(c2)OCO3)O[C@H](c2ccc3c(c2)OCO3)[C@H]1COC(C)=O
> 100 µM: DMS 114 small cell lung | SW-620 colon | DMS 273 small cell lung | SK-OV-3 ovarian | HCT-15 colon | OVCAR-3 ovarian | CCRF-CEM leukemia | SN12C renal | EKVX NSCLC | CAKI-1 renal
